Measured values: US12662489B2 (Sitryx Therapeutics Limited, priority 2023, dated 2026)

Key:
[1] = target: T1, MTHFD1 recombinant human enzyme (Homo sapiens, UniProt P11586); test: MTHFD1 inhibition assay (NAD(P)H-Glo luminescence); conditions: MTHFD1 IC50, recombinant human enzyme 200 nM, NADP, band
T1 sequence (P11586 2-291 limits assumed): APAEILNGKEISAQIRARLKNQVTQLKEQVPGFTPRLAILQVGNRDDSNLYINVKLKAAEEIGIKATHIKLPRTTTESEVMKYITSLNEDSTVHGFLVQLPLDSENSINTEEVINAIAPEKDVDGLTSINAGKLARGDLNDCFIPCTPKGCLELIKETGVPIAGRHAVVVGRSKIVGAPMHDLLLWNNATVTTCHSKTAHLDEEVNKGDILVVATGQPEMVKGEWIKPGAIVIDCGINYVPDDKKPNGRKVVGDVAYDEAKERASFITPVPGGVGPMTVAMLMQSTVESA

[2] = target: T2, MTHFD2 recombinant human enzyme (Homo sapiens, UniProt P13995); test: MTHFD2 inhibition assay (NAD(P)H-Glo luminescence); conditions: for MTHFD1/MTHFD2 IC50 ratio: selectivity of MTHFD2 inhibition over MTHFD1, band
T2 sequence (P13995 36-350): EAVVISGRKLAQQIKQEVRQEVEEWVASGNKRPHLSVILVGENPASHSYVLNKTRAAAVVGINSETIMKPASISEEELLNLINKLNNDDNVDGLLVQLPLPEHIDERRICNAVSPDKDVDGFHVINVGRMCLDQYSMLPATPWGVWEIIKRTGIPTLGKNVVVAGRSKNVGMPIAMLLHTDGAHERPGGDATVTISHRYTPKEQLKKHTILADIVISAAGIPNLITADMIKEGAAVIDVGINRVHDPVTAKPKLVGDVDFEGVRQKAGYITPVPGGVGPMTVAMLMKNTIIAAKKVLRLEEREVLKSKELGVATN

Row | SMILES | IC50 [1] [nM] | IC50 [2] [nM] | MTHFD1/MTHFD2 IC50 ratio [2]
1 | COC[C@H]1CN(c2cc(C)c3c4c(c(=O)oc3c2C)CN(C(=O)c2cc3c(c(C(=O)NS(=O)(=O)N5CCCC5)c2)OC2(CCC2)O3)CC4)CCN1C [Example 167, (R)-6-(8-(3-(methoxymethyl)-4-methylpiperazin-1-yl)-7,10-dimethyl-5-oxo-1,3,4,5-tetrahydro-2H-chromeno[3,4-c]pyridine-3-carbonyl)-N-(pyrrolidin-1-ylsulfonyl)spiro[benzo[d][1,3]dioxole-2,1′-cyclobutane]-4-carboxamide] | > 5000 | 100 to 1000 | H (>9.0 to 30)
2 | COC[C@H]1CN(c2cc(C)c3c4c(c(=O)oc3c2C)CN(C(=O)c2ccc(C(=O)NS(=O)(=O)N(C)C)c(OC)c2F)CC4)CCN1C [Example 134, (R)-N-(N,N-dimethylsulfamoyl)-3-fluoro-2-methoxy-4-(8-(3-(methoxymethyl)-4-methylpiperazin-1-yl)-7,10-dimethyl-5-oxo-1,3,4,5-tetrahydro-2H-chromeno[3,4-c]pyridine-3-carbonyl)benzamide] | 10 to 100 | 10 to 100 | G (^ 3 to 9.0)
3 | COC[C@H]1CN(c2cc(C)c3c4c(c(=O)oc3c2C)CN(C(=O)c2ccc(C(=O)NS(=O)(=O)C3(C)CC3)c(OC3CCC3)c2F)CC4)CCN1C [Example 41, (R)-2-cyclobutoxy-3-fluoro-4-(8-(3-(methoxymethyl)-4-methylpiperazin-1-yl)-7,10-dimethyl-5-oxo-1,3,4,5-tetrahydro-2H-chromeno[3,4-c]pyridine-3-carbonyl)-N-((1-methylcyclopropyl)sulfonyl)benzamide] | 1 to 10 | 1 to 10 | G (^ 3 to 9.0)
4 | CCN1CCN(c2ccc3c4c(c(=O)oc3c2C)CN(C(=O)c2ccc(C(=O)NS(=O)(=O)N3CCCC3)c(OC3CCC3)c2F)CC4)C[C@@H]1COC [Example 172, (R)-2-cyclobutoxy-4-(8-(4-ethyl-3-(methoxymethyl)piperazin-1-yl)-7-methyl-5-oxo-1,3,4,5-tetrahydro-2H-chromeno[3,4-c]pyridine-3-carbonyl)-3-fluoro-N-(pyrrolidin-1-ylsulfonyl)benzamide] | 10 to 100 | 10 to 100 | F (<3)
5 | COC[C@H]1CN(c2cc(C)c3c4c(c(=O)oc3c2C)CN(C(=O)c2ccc(C(=O)NS(=O)(=O)C3(C)CC3)c(O[C@H]3C[C@@H]5C[C@@H]5C3)c2F)CC4)CCN1C [Example 68, 2-(((1R,3s,5S)-bicyclo[3.1.0]hexan-3-yl)oxy)-3-fluoro-4-(8-((R)-3-(methoxymethyl)-4-methylpiperazin-1-yl)-7,10-dimethyl-5-oxo-1,3,4,5-tetrahydro-2H-chromeno[3,4-c]pyridine-3-carbonyl)-N-((1-methylcyclopropyl)sulfonyl)benzamide] | 1 to 10 | 1 to 10 | F (<3)
6 | COC[C@H]1CN(c2cc(C)c3c4c(c(=O)oc3c2)CN(C(=O)c2ccc(C(=O)NS(=O)(=O)N3CCCC3)c(OC3CCC3)c2F)CC4)CCN1C [Example 186, (R)-2-cyclobutoxy-3-fluoro-4-(8-(3-(methoxymethyl)-4-methylpiperazin-1-yl)-10-methyl-5-oxo-1,3,4,5-tetrahydro-2H-chromeno[3,4-c]pyridine-3-carbonyl)-N-(pyrrolidin-1-ylsulfonyl)benzamide] | 100 to 1000 | 100 to 1000 | F (<3)
7 | COC[C@H]1CN(c2cc(C)c3c4c(c(=O)oc3c2C)CN(C(=O)c2ccc(C(=O)NS(=O)(=O)N(C)C)c(N3CCC(C)(C)C3)c2)CC4)CCN1C [Example 88, (R)-2-(3,3-dimethylpyrrolidin-1-yl)-N-(N,N-dimethylsulfamoyl)-4-(8-(3-(methoxymethyl)-4-methylpiperazin-1-yl)-7,10-dimethyl-5-oxo-1,3,4,5-tetrahydro-2H-chromeno[3,4-c]pyridine-3-carbonyl)benzamide] | 1 to 10 | 1 to 10 | F (<3)
8 | COC[C@H]1CN(c2ccc3c4c(c(=O)oc3c2Cl)CN(C(=O)c2ccc(C(=O)NS(=O)(=O)N(C)C(C)C)c(OC3CCC3)c2F)CC4)CCN1C [Example 30, (R)-4-(7-chloro-8-(3-(methoxymethyl)-4-methylpiperazin-1-yl)-5-oxo-1,3,4,5-tetrahydro-2H-chromeno[3,4-c]pyridine-3-carbonyl)-2-cyclobutoxy-3-fluoro-N-(N-isopropyl-N-methylsulfamoyl)benzamide] | 10 to 100 | 10 to 100 | F (<3)

Results, then the compound that gave them:

Row | IC50 [1] [nM] | IC50 [2] [nM] | MTHFD1/MTHFD2 IC50 ratio [2] | SMILES
9 | 100 to 1000 | 10 to 100 | G (^ 3 to 9.0) | COC[C@H]1CN(c2ccc3c4c(c(=O)oc3c2C)CN(C(=O)c2cc(N3CCC3)c(C(=O)NS(=O)(=O)N3CC5CC5C3)cc2F)CC4)CCN1C (stereo partly drawn) [Example 203, N-((3-azabicyclo[3.1.0]hexan-3-yl)sulfonyl)-2-(azetidin-1-yl)-5-fluoro-4-(8-((R)-3-(methoxymethyl)-4-methylpiperazin-1-yl)-7-methyl-5-oxo-1,3,4,5-tetrahydro-2H-chromeno[3,4-c]pyridine-3-carbonyl)benzamide]
10 | 1000 to 5000 | 10 to 100 | J (>30) | COC[C@H]1CN(c2cc(C)c3c4c(c(=O)oc3c2C)CN(C(=O)c2ccc(C(=O)NS(=O)(=O)N3CCC(F)CC3)cc2F)CC4)CCN1C [Example 204, (R)-3-fluoro-N-((4-fluoropiperidin-1-yl)sulfonyl)-4-(8-(3-(methoxymethyl)-4-methylpiperazin-1-yl)-7,10-dimethyl-5-oxo-1,3,4,5-tetrahydro-2H-chromeno[3,4-c]pyridine-3-carbonyl)benzamide]
11 | 1000 to 5000 | 100 to 1000 | G (^ 3 to 9.0) | COC[C@H]1CN(c2ccc3c4c(c(=O)oc3c2C)CN(C(=O)c2cc(OC3CCCC3)c(C(=O)NS(=O)(=O)N3CCCC3)c(C(F)(F)F)c2)CC4)CCN1C [Example 107, (R)-2-(cyclopentyloxy)-4-(8-(3-(methoxymethyl)-4-methylpiperazin-1-yl)-7-methyl-5-oxo-1,3,4,5-tetrahydro-2H-chromeno[3,4-c]pyridine-3-carbonyl)-N-(pyrrolidin-1-ylsulfonyl)-6-(trifluoromethyl)benzamide]
12 | 1000 to 5000 | 10 to 100 | J (>30) | COC[C@H]1CN(c2cc(F)c3c4c(c(=O)oc3c2C)CN(C(=O)c2cc(OC)c(C(=O)NS(=O)(=O)N3CCCC3)cc2F)CC4)CCN1C [Example 309, (R)-5-fluoro-4-(10-fluoro-8-(3-(methoxymethyl)-4-methylpiperazin-1-yl)-7-methyl-5-oxo-1,3,4,5-tetrahydro-2H-chromeno[3,4-c]pyridine-3-carbonyl)-2-methoxy-N-(pyrrolidin-1-ylsulfonyl)benzamide]
13 | 10 to 100 | 10 to 100 | F (<3) | CCOc1c(C(=O)NS(=O)(=O)N2CC3CCC(C3)C2)ccc(C(=O)N2CCc3c(c(=O)oc4c(C)c(N5CCN(C)[C@@H](COC)C5)ccc34)C2)c1F [Example 237]
